biological target: T1, hGRK-2 (Homo sapiens, UniProt P25098); assay: luciferase-based (Kinase-Glo) biochemical kinase inhibition assay, hGRK-2; details: luciferase assay, casein substrate, 10 μM ATP; read-out: GRK-2 inhibition, Ki class
T1 sequence (P25098 1-689): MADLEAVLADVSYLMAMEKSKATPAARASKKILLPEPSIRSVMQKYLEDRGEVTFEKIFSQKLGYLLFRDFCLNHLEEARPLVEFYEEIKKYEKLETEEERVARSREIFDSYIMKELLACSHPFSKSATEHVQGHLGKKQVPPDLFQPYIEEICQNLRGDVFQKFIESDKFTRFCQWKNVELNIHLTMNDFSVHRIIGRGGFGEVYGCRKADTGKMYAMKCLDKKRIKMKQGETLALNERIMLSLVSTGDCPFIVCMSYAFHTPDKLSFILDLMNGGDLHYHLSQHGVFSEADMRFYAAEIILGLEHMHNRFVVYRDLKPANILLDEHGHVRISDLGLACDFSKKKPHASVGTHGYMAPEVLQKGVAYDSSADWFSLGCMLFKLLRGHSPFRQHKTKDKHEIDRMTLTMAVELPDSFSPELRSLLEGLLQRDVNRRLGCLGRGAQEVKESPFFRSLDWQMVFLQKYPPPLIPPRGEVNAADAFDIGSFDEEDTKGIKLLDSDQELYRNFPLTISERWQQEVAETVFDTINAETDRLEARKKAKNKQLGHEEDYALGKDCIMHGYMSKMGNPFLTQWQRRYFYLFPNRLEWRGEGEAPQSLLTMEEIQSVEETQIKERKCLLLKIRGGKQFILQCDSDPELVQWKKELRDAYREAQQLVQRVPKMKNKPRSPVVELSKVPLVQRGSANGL
Experimental: The inhibition of G-protein-coupled receptor kinases including hGRK-2 was determined for the hydrazide compounds using a biochemical assay. The inhibition of GRK-3, GRK-5 and GRK-6 was also determined using the same assay for some of the hydrazide derivatives.
The protein kinase inhibition was determined using a biochemical assay utilizing the light emission of a luciferase reaction. The luciferase-based assay operates on the following reaction principles: [drawing 10]
An inhibitor of GRK-2 will increase in the amount of ATP in solution, as shown. Thus, an inhibitor of GRK-2 will drive the luciferase reaction to the right, resulting in more light emitted. The amount of light emitted is proportional to the inhibition resulting from the GRK-2 inhibitor. The luciferase-based assay was also used to test some of the hydrazides for the inhibition properties towards other kinases.
The test procedure was as follows:
• 50 mM HEPES, pH 7.5 • 10 mM MgCl2 • 100 μM activated sodium orthovanadate • 0.01% CHAPS • 0.1% BSA • 1 mM DTT (added fresh daily) 10× Assay Buffer Stock: • 500 mM HEPES, pH 7.5 • 100 mM MgCl2 • 1 mM activated sodium orthovanadate • 0.1% CHAPS • 1% BSA (leave out for 10× compound dilution buffer) Final Assay Conditions: • 50 μM test compound • 20 μM casein • 10 μM ATP • 50 nM hGRK2 • 4.5% DMSO • 90-120 minute incubation
Stopped by addition of 30 μl 3×-diluted Kinase-Glo reagent containing 0.01% trypan blue. Counted on FUSION plate reader.
Compound Dilution and Transfer
Prepare sufficient buffer containing 40% DMSO to add 20 μl/well to the number of plates being assayed. This buffer should not contain BSA because it will precipitate with addition of 40% DMSO. (EXAMPLE: To make 3000 ml compound dilution buffer: 1200 ml DMSO, 180 ml 10× compound dilution buffer, 1615 ml ultrapure water, 3 ml 1M DTT.).
Using Multidrop, add 20 μl of compound dilution buffer to all wells of the 384-well daughter plate (add 1 μl DMSO to control wells). This will result in a daughter plate which contains 21 μl of ˜500 μM test compound.
Using the PlateTrak, transfer 5 μl of the test compounds to a 384-well, non-binding, white microtiter plate.
Prepare sufficient volume of buffer (with BSA and 1 mM DTT) containing 125 nM GRK2 and 25 μM ATP. (Example: To 219 ml of buffer was added 550 μl 10 mM ATP and 350 μl 79 μM GRK2).
Using Multidrop, add 20 μl of GRK2/ATP mixture to all wells of the microtiter plate.
Prepare sufficient volume of buffer (with BSA and 1 mM DTT) containing 40 μM casein. (EXAMPLE: To 211 ml buffer add 8.8 ml 1 mM casein)
Using Multidrop, add 25 μl to columns 1 through 23 of the microtiter plate. Add 25 μl of complete buffer to column 24 (blanks).
Mix reaction gently by tapping (Multidrop addition of casein does a decent job of mixing), stack plates and incubate at room temperature for between 90 and 120 minutes. Assay progression can be tracked in a separate plate if desired. Target 20-30% ATP consumption. Try to avoid exceeding 40% consumption as kinetics might become non-linear due to substrate (ATP) depletion.
Addition of Kinase-Glo Reagents
The Kinase-Glo reagent can be diluted 3-fold with no loss of data quality in this assay. Additionally, since the library contains many colored compounds which will quench the light emitted from the well resulting in a false negative (kinase inhibitors result in less ATP consumption thus more light emitted), the entire reaction is subject to intentional quench to override this effect. This intentional quench is accomplished by the addition of 0.01% trypan blue to the Kinase-Glo reagents. (EXAMPLE: 100 ml 1× Kinase-Glo reagents (prepared according to product insert), 200 ml assay buffer, 7.5 ml 0.4% trypan blue.
Using Multidrop, add 30 μl to all wells of the assay plate.
Count on FUSION plate reader in luminescence mode.

| Compound | Ki [nM] |
| --- | --- |
| COc1ccc(Oc2cccc(NCC(=O)NN=Cc3ccncc3)c2)cc1 (mixture of isomers) [Example 81] | 10 to 100 |
| O=C(CNc1cccc(Br)c1)N/N=C/c1ccncc1 [Example 44, (3-Bromo-phenylamino)-acetic acid [1-pyridin-4-yl-meth-(E)-ylidene]-hydrazide] | 100 to 1000 |
| Cc1ccc(Oc2cccc(NCC(=O)N/N=C/c3c(Cl)cncc3Cl)c2)cc1 [Example 35, (3-p-Tolyloxy-phenylamino)-acetic acid [1-(3,5-dichloro-pyridin-4-yl)-meth-(E)-ylidene]-hydrazide] | 1000 to 10000 |
| COc1cc(NCC(=O)N/N=C/c2ccncc2)cc(OC)c1 [Example 100, (3,5-Dimethoxy-phenylamino)-acetic acid [1-pyridin-4-yl-meth-(E)-ylidene]-hydrazide] | > 10000 |
| O=C(CNc1ccccc1)N/N=C/c1c(Cl)cncc1Cl [Example 2, Phenylamino-acetic acid [1-(3,5-dichloro-pyridin-4-yl)-meth-(E)-ylidene]-hydrazide] | 100 to 1000 |
| O=C(COc1cccc(Cl)c1)N/N=C/c1ccncc1 [Example 38, (3-Chloro-phenoxy)-acetic acid [1-pyridin-4-yl-meth-(E)-ylidene]-hydrazide] | > 10000 |
| Cc1cccc(NCC(=O)N/N=C/c2ccncc2)c1 [Example 46, (3-Methyl-phenylamino)-acetic acid [1-pyridin-4-yl-meth-(E)-ylidene]-hydrazide] | 1000 to 10000 |
| CS(=O)(=O)c1cccc(NCC(=O)N/N=C/c2ccncc2)c1 [Example 73, (3-Methanesulfonyl-phenylamino)-acetic acid [1-pyridin-4-yl-meth-(E)-ylidene]-hydrazide] | 1000 to 10000 |
| O=C(CNc1ccc(Cl)cc1)N/N=C/c1c(Cl)cncc1Cl [Example 18, (4-Chloro-phenylamino)-acetic acid [1-(3,5-dichloro-pyridin-4-yl)-meth-(E)-ylidene]-hydrazide] | 1000 to 10000 |
| Cc1cccc(NCC(=O)N/N=C/c2c(Cl)cncc2Cl)c1 [Example 8, m-Tolylamino-acetic acid [1-(3,5-dichloro-pyridin-4-yl)-meth-(E)-ylidene]-hydrazide] | 1000 to 10000 |
| O=C(CNc1ccccc1Cc1ccccc1)N/N=C/c1ccncc1 [Example 70, (2-Benzyl-phenylamino)-acetic acid [1-pyridin-4-yl-meth-(E)-ylidene]-hydrazide] | 1000 to 10000 |
| O=C(CNc1cccc(C(=O)Nc2cccnc2)c1)N/N=C/c1ccncc1 [Example 80, N-Pyridin-3-yl-3-{[1-pyridin-4-yl-meth-(E)-ylidene-hydrazinocarbonylmethyl]-amino}-benzamide] | 100 to 1000 |
| CC(=O)Nc1cccc(NCC(=O)N/N=C/c2c(Cl)cncc2Cl)c1 [Example 27, N-(3-{[1-(3,5-Dichloro-pyridin-4-yl)-meth-(E)-ylidene-hydrazinocarbonylmethyl]-amino}-phenyl)-acetamide] | 1000 to 10000 |
| O=C(CNc1ccc(Br)cc1)N/N=C/c1ccncc1 [Example 36, (4-Bromo-phenylamino)-acetic acid [1-pyridin-4-yl-meth-(E)-ylidene]-hydrazide] | 1000 to 10000 |

Continued, values first:

| Ki [nM] | Compound |
| --- | --- |
| > 10000 | COc1ccccc1NCC(=O)N/N=C/c1ccncc1 [Example 67, (2-Methoxy-phenylamino)-acetic acid [1-pyridin-4-yl-meth-(E)-ylidene]-hydrazide] |
| 1000 to 10000 | N#Cc1cccc(NCC(=O)N/N=C/c2ccncc2)c1 [Example 39, (3-Cyano-phenylamino)-acetic acid [1-pyridin-4-yl-meth-(E)-ylidene]-hydrazide] |
| > 10000 | O=C(CNc1cccc(C(F)(F)F)c1)N/N=C/c1c(Cl)cncc1Cl [Example 12, (3-Trifluoromethyl-phenylamino)-acetic acid [1-(3,5-dichloro-pyridin-4-yl)-meth-(E)-ylidene]-hydrazide] |
| > 10000 | Cc1ccc(NCC(=O)N/N=C/c2ccncc2)cc1 [Example 56, (4-Methyl-phenylamino)-acetic acid [1-pyridin-4-yl-meth-(E)-ylidene]-hydrazide] |
| > 10000 | O=C(CNc1cccc(-n2cccn2)c1)N/N=C/c1ccncc1 [Example 82, (3-Pyrazol-1-yl-phenylamino)-acetic acid [1-pyridin-4-yl-meth-(E)-ylidene]-hydrazide] |
| > 10000 | O=C(CNc1cccc(Cl)c1)N/N=C/c1ccsc1 [Example 93, (3-Chloro-phenylamino)-acetic acid [1-thiophen-3-yl-meth-(E)-ylidene]-hydrazide] |
| 1000 to 10000 | CC(C)Oc1cccc(NCC(=O)N/N=C/c2c(Cl)cncc2Cl)c1 [Example 19, (3-Isopropoxy-phenylamino)-acetic acid [1-(3,5-dichloro-pyridin-4-yl)-meth-(E)-ylidene]-hydrazide] |
| 1000 to 10000 | CCc1ccccc1NCC(=O)N/N=C/c1c(Cl)cncc1Cl [Example 26, (2-Ethyl-phenylamino)-acetic acid [1-(3,5-dichloro-pyridin-4-yl)-ylidene]-hydrazide] |
| 100 to 1000 | O=C(CNc1cccc(Oc2ccc(F)c(F)c2)c1)N/N=C/c1ccncc1 [Example 83, [3-(3,4-Difluoro-phenoxy)-phenylamino]-acetic acid [1-pyridin-4-yl-meth-(E)-ylidene]-hydrazide] |
| > 10000 | CC(Nc1cccc(Oc2ccccc2)c1)C(=O)N/N=C/c1ccncc1 (stereo not shown) [Example 99, 2-(3-phenoxy-phenylamino)-propionic acid [1-pyridin-4-yl-meth-(E)-ylidene]-hydrazide] |
| > 10000 | NC(=O)c1ccc(NCC(=O)N/N=C/c2ccncc2)cc1 [Example 75, 4-{[1-Pyridin-4-yl-meth-(E)-ylidene-hydrazinocarbonylmethyl]-amino}-benzamide] |
| 1000 to 10000 | CCc1cccc(NCC(=O)N/N=C/c2ccncc2)c1 [Example 59, (3-Ethyl-phenylamino)-acetic acid [1-pyridin-4-yl-meth-(E)-ylidene]-hydrazide] |
| 1000 to 10000 | CS(=O)(=O)Nc1cccc(NCC(=O)N/N=C/c2c(Cl)cncc2Cl)c1 [Example 24] |
| 1000 to 10000 | CS(=O)(=O)c1cccc(NCC(=O)N/N=C/c2c(Cl)cncc2Cl)c1 [Example 23, (3-Methanesulfonyl-phenylamino)-acetic acid [1-(3,5-dichloro-pyridin-4-yl)-meth-(E)-ylidene]-hydrazide] |
